Laboratory results reported in patent publication US11472778B2, “Hepatitis C virus NS3/4A protease inhibitors” (priority 2017, dated 2022).
Where two headings read alike, the source gives them in different places.

How the values were obtained:
[1] = rcm bond, 15-membered ring, Zhan 1b, 1,2-DCE, 70.0 °C
[2] = target: T1, GT1a D168A NS3/4A protease (UniProt P27958, C1185S/D1194A, species not given); assay type: biochemical, Hepatitis C virus; conditions: read-out: Ki (nM) GT1a D168A NS3/4A Protease
T1 construct: Ki (nM) GT1a D168A NS3/4A Protease
How it was run: (§1)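 Enzyme (GT1a wild type or D168A mutant, 2 nM) was preincubated with inhibitor dilutions for 1 h at room temperature in pH 7.5 Tris buffer with glycerol, DTT, LDAO and 4% DMSO.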

[3] = target: GT1a D168A NS3/4A protease; assay type: biochemical, Hepatitis C virus; conditions: Table 3; Ki D168A relative to GT1a WT
How it was run: as §1

[4] = target: T2, wild-type GT1a NS3/4A protease (UniProt P27958, C1185S, species not given); assay type: biochemical, Hepatitis C virus; conditions: read-out: Ki (nM) GT1a WT NS3/4A Protease
T2 construct: Ki (nM) GT1a WT NS3/4A Protease
How it was run: as §1

[5] = target: T3, GT3a NS3/4A protease (Hepatitis C virus genotype 3a, UniProt Q81495); test: biochemical; conditions: for Ki (Fold change) GT3a NS3/4A Protease: Table 3, Ki GT3a relative to GT1a WT
T3 construct: drug-resistant variant D168A, and GT3a NS3/4A protease; made in house; host or cells: Escherichia coli BL21(DE3)
Experimental: For each assay, 2 nM of NS3/4A protease (GT1, D168A and GT3) was pre-incubated at room temperature for 1 h with increasing concentration of inhibitors in assay buffer [50 mM Tris, 5% glycerol, 10 mM DTT, 0.6 mM LDAO, and 4% dimethyl sulfoxide]. Inhibition assays were performed in nonbinding surface 96-well black half-area plates (Corning) in a reaction volume of 60 μt. […] Three independent data sets were collected for each inhibitor with each protease construct.

[6] = system: wild-type HCV replicon in Huh7 cells; test: Cell-based drug susceptibility (replicon) assay, wild-type; conditions: Hepatitis C virus, read-out: Replicon EC50 (nM) WT
How it was run: (§2)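 Luciferase signal (RLU) at 96 h post-electroporation served as the replication read-out. Huh7 cells received replicon RNA of a Con1 1b backbone bearing H77 1a NS3, wild-type or site-directed mutant, and were dosed with increasing protease inhibitor concentrations.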

[7] = system: HCV replicon A156T variant in Huh7 cells; test: microbe, parasite or virus in culture; assay type: cell-based, Hepatitis C virus; conditions: for EC50: Hepatitis C virus; for Replicon EC50 (Fold change) A156T: Table 4, relative to WT replicon
How it was run: as §2

[8] = system: HCV replicon D168A variant in Huh7 cells; test: microbe, parasite or virus in culture; assay type: cell-based, Hepatitis C virus; conditions: for EC50: Hepatitis C virus; for Replicon EC50 (Fold change) D168A: Table 4, relative to WT replicon
How it was run: as §2

[9] = system: HCV replicon R155K variant in Huh7 cells; test: microbe, parasite or virus in culture; assay type: cell-based, Hepatitis C virus; conditions: for EC50: Hepatitis C virus; for Replicon EC50 (Fold change) R155K: Table 4, relative to WT replicon
How it was run: as §2

[10] = system: HCV replicon D168V variant in Huh7 cells; test: microbe, parasite or virus in culture; assay type: cell-based, Hepatitis C virus; conditions: for EC50: Hepatitis C virus; for Replicon EC50 (Fold change) D168V: Table 4, relative to WT replicon
How it was run: as §2

[11] = Huh-7, 96 h, Table 2, Huh7 cells, luciferase 96 h
[12] = Huh-7, 96 h, read-out: Replicon EC50 (nM) A156T, Table 2, Huh7 cells, luciferase 96 h
[13] = Huh-7, read-out: Replicon EC50 (nM) A156T, Table 4
[14] = Huh-7, 96 h, read-out: Replicon EC50 (nM) D168A, Table 2, Huh7 cells, luciferase 96 h
[15] = Huh-7, read-out: Replicon EC50 (nM) D168A, Table 4
[16] = Huh-7, 96 h, read-out: Replicon EC50 (nM) R155K, Table 2, Huh7 cells, luciferase 96 h
[17] = Huh-7, read-out: Replicon EC50 (nM) R155K, Table 4
[18] = Huh-7, 96 h, read-out: Replicon EC50 (nM) D168V, Table 2, Huh7 cells, luciferase 96 h
[19] = Huh-7, read-out: Replicon EC50 (nM) D168V, Table 4

T3 sequence (Q81495 1033-1214): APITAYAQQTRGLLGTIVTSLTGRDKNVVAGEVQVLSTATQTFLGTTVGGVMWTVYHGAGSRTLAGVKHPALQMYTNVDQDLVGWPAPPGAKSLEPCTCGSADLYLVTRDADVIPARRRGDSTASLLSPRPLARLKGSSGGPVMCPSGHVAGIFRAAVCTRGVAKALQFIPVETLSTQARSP

SMILES	Ki ([2]; Table 1)	Ki ([2]; Table 3)	Ki (Fold change) GT1a D168A NS3/4A Protease [3]	Ki ([4]; Table 1)	Ki ([4]; Table 3)	Ki [5]	Ki (Fold change) GT3a NS3/4A Protease [5]	EC50 [6, 11]	EC50 ([6]; Huh-7, Table 4)	EC50 [7, 12]	EC50 [7, 13]	Replicon EC50 (Fold change) A156T [7]	EC50 [8, 14]	EC50 [8, 15]	Replicon EC50 (Fold change) D168A [8]	EC50 [9, 17]	Replicon EC50 (Fold change) R155K [9]	EC50 [10, 18]	EC50 [10, 19]	Replicon EC50 (Fold change) D168V [10]	further results
COc1ccc2nc(C)c(O[C@@H]3C[C@H]4C(=O)N[C@]5(C(=O)NS(=O)(=O)C6CC6)C[C@H]5/C=C\CCCCC[C@H](NC(=O)OC(C)(C)C)C(=O)N4C3)nc2c1 [Compound 18b, tert-Butyl ((2R,6S,13aS,14aR,16aS,Z)-14a-((cyclopropylsulfonyl)carbamoyl)-2-((7-methoxy-3-methylquinoxalin-2-yl)oxy)-5,16-dioxo-1,2,3,5,6,7,8,9,10,11,13a,14,14a,15,16,16a-hexadecahydrocyclopropa[e]pyrrolo[1,2-a][1,4]diazacyclopentadecin-6-yl)carbamate]	50.9 nM	50.9 ± 3.7 nM	(15) fold	3.4 nM	3.4 nM	152 nM	(45) fold	0.39 nM	0.39 nM	5.95 nM	5.95 nM	(15) fold	4.24 nM	4.24 nM	(11) fold	1.17 nM	(3) fold	3.17 nM	3.17 nM	(8) fold	ring closure, isolated yield ([1]; 6.5 mM): 45%; EC50 [9, 16]: 1.17 nM
COc1ccc2nc(Cl)c(O[C@@H]3C[C@H]4C(=O)N[C@]5(C(=O)NS(=O)(=O)C6CC6)C[C@H]5/C=C\CCCCC[C@H](NC(=O)OC(C)(C)C)C(=O)N4C3)nc2c1 [Compound 18c, tert-Butyl ((2R,6S,13aS,14aR,16aS,Z)-2-((3-chloro-7-methoxyquinoxalin-2-yl)oxy)-14a-((cyclopropylsulfonyl)carbamoyl)-5,16-dioxo-1,2,3,5,6,7,8,9,10,11,13a,14,14a,15,16,16a-hexadecahydrocyclopropa[e]pyrrolo[1,2-a][1,4]diazacyclopentadecin-6-yl)carbamate]	39.8 nM	39.8 ± 3.4 nM	(37) fold	1.07 nM	1.07 nM	67.5 nM	(63) fold	–	0.16 nM	16.2 nM	16.2 nM	(101) fold	< 2 nM	1.42 nM	(9) fold	0.44 nM	(3) fold	< 1 nM	0.73 nM	(5) fold	ring closure, isolated yield ([1]; 6.3 mM): 50%
CCc1nc2ccc(OC)cc2nc1O[C@@H]1C[C@H]2C(=O)N[C@]3(C(=O)NS(=O)(=O)C4(C)CC4)C[C@H]3/C=C\CCCCC[C@H](NC(=O)OC(C)(C)C)C(=O)N2C1 [Compound 19a, tert-Butyl ((2R,6S,13aS,14aR,16aS,Z)-2-((3-ethyl-7-methoxyquinoxalin-2-yl)oxy)-14a-(((1-methylcyclopropyl)sulfonyl)carbamoyl)-5,16-dioxo-1,2,3,5,6,7,8,9,10,11,13a,14,14a,15,16,16a-hexadecahydrocyclopropa[e]pyrrolo[1,2-a][1,4]diazacyclopentadecin-6-yl)carbamate]	55.2 nM	55.2 ± 5.3 nM	(30) fold	1.82 nM	1.82 nM	171 nM	(94) fold	0.43 nM	0.43 nM	4.52 nM	4.52 nM	(11) fold	4.97 nM	4.97 nM	(12) fold	1.8 nM	(4) fold	6.42 nM	6.42 nM	(15) fold	ring closure, isolated yield ([1]; from C=CCCCCC[C@H](NC(=O)OC(C)(C)C)C(=O)N1C[C@H](Oc2nc3cc(OC)ccc3nc2CC)C[C@H]1C(=O)N[C@]1(C(=O)NS(=O)(=O)C2(C)CC2)C[C@H]1C=C, 6.0 mM): 71%; EC50 [9, 16]: 1.8 nM
COc1ccc2nc(Cl)c(O[C@@H]3C[C@H]4C(=O)N[C@]5(C(=O)NS(=O)(=O)C6(C)CC6)C[C@H]5/C=C\CCCCC[C@H](NC(=O)OC(C)(C)C)C(=O)N4C3)nc2c1 [Compound 19c, tert-Butyl ((2R,6S,13aS,14aR,16aS,Z)-2-((3-chloro-7-methoxyquinoxalin-2-yl)oxy)-14a-(((1-methylcyclopropyl)sulfonyl)carbamoyl)-5,16-dioxo-1,2,3,5,6,7,8,9,10,11,13a,14,14a,15,16,16a-hexadecahydrocyclopropa[e]pyrrolo[1,2-a][1,4]diazacyclopentadecin-6-yl)carbamate]	77.7 nM	77.7 ± 6.1 nM	(70) fold	1.11 nM	1.11 nM	53.6 nM	(48) fold	–	0.18 nM	8.86 nM	8.86 nM	(49) fold	< 2 nM	1.07 nM	(6) fold	0.4 nM	(2) fold	–	0.49 nM	(3) fold	ring closure, isolated yield ([1]; 5.0 mM): 86%
